Assay results: PMC3185571 (Viruses, 2010)
Where two headings read alike, the source gives them in different places.

Columns and labels:
[1] = target: neuraminidase of A/Thailand/1035/2008 (H1N1), H275Y and D151D/G (Influenza A virus, UniProt C7FPR4); type: biochemical
[2] = target: neuraminidase of A/Texas/48/2009, H1N1 Pandemic, H275Y (Influenza A virus, UniProt C6KP13, H275Y); type: biochemical, 2009 pandemic H1N1 influenza virus
[3] = target: neuraminidase of A/Florida/21/2008, A (H1N1) Seasonal, H275Y (Influenza A virus, UniProt G3LYQ1, H275Y); type: biochemical
[4] = target: neuraminidase of B/Memphis/20/1996, B Seasonal, R152K (Influenza B virus, UniProt R4KWM8, R150K); type: biochemical
[5] = target: neuraminidase of A/Washington/01/2007, A (H3N2) Seasonal, WT (Influenza A virus, UniProt A7UPN3); assay: biochemical
[6] = target: neuraminidase of A/Washington/10/2008, A (H1N1) Seasonal, WT (Influenza A virus, UniProt G3LYQ1); type: biochemical
[7] = target: neuraminidase of A/California/07/2009, H1N1 Pandemic, WT (Influenza A virus (A/California/07/2009(H1N1)), UniProt C7FH46); type: biochemical, 2009 pandemic H1N1 influenza virus
[8] = target: neuraminidase of 2009 pandemic H1N1 H275Y variant virus isolates (Influenza A virus, UniProt C3W5S3, H275Y); type: biochemical, 2009 pandemic H1N1 influenza virus
[9] = target: neuraminidase of seasonal influenza A(H1N1) H275Y variant virus isolates (Influenza A virus, UniProt A8C8J7, H275Y); type: biochemical
[10] = target: neuraminidase of A/Ontario/RV0442/2009, A(H3N2), D151V and V50M (Influenza A virus, UniProt X2GPU4, D151V/V50M); type: biochemical
[11] = target: neuraminidase of A/Texas/12/2007, A (H3N2) Seasonal, E119V (Influenza A virus, UniProt D1FVK3, I119V); assay: biochemical
[12] = target: neuraminidase of B/Memphis/20/1996, B Seasonal, WT (Influenza B virus, UniProt C7FPS7); type: biochemical
[13] = target: neuraminidase of B/Texas/38/2008, D197E (Influenza B virus, UniProt C7F996); assay: biochemical

SMILES: CCC(CC)[C@H](NC(C)=O)[C@@H]1[C@H](O)[C@@H](C(=O)O)C[C@H]1N=C(N)N [Peramivir, peramivir]
- IC50 ([1]; read-out: IC50): 295 nM
- Fold Difference (IC50 of mutant/IC50 of wildtype virus) [2]: 10.06±0.01 (164)
- IC50 ([2]; read-out: Mean IC50 ± SD): 10.1 nM
- Fold Difference (IC50 of mutant/IC50 of wildtype virus) [3]: 11.27±1.36 (134)
- IC50 ([3]; read-out: Mean IC50 ± SD): 11.3 nM
- Fold Difference (IC50 of mutant/IC50 of wildtype virus) [4]: 52.80±3.51 (176)
- IC50 ([4]; read-out: Mean IC50 ± SD): 52.8 nM
- Fold Difference (IC50 of mutant/IC50 of wildtype virus) [5]: 0.12±0.02 (1)
- Fold Difference (IC50 of mutant/IC50 of wildtype virus) [6]: 0.09±0.02 (1)
- Fold Difference (IC50 of mutant/IC50 of wildtype virus) [7]: 0.06±0.02 (1)
- IC50 ([8]; read-out: IC50 Mean (±SD)): 10.4 ± 1.37 nM
- IC50 ([8]; read-out: IC50 Median): 10.3 nM
- IC50 ([8]; read-out: IC50 Range): 8.1 to 12.9 nM
- fold, mean IC50 among H275Y variants over H275 wildtype viruses [9]: ~300 fold
- IC50 ([9]; read-out: IC50 Mean (±SD)): 30.6 ± 66.1 nM
- IC50 ([9]; read-out: IC50 Median): 12.9 nM
- IC50 ([9]; read-out: IC50 Range): 2.46 to 511 nM
- IC50 [10]: 7.48 nM
- Fold Difference (IC50 of mutant/IC50 of wildtype virus) [11]: 0.14±0.02 (1)
- IC50 ([11]; read-out: Mean IC50 ± SD): 0.14 nM
- Fold Difference (IC50 of mutant/IC50 of wildtype virus) [12]: 0.31±0.06 (1)

SMILES: CC(=O)N[C@H]1[C@H]([C@H](O)[C@H](O)CO)OC(C(=O)O)=C[C@@H]1N=C(N)N [Zanamivir, zanamivir]
- IC50 [1]: 20.6 nM
- IC50 [13]: 10.3 nM
- IC50 [11]: 0.51 nM
